Earlier results on 1 compound are cited in US20240130371A1, “ENVIRONMENTAL PROTECTION SYSTEMS AND METHODS OF GREENHOUSE GAS CAPTURE VIA CALCIUM HYDROXIDE” (priority 2021, published 2024).

The conditions of the data set: common coronavirus killers.

Turning to `CC(C)O` [isopropyl alcohol], the pH result is recorded as “around 8”.
